Reference: patent US20190282496A1 (Bryn Pharma, LLC, priority 2018, published 2019)

Key:
[1] = test system: histamine induced nasal congestion
[2] = dogs; concomitant intranasal administration of phentolamine; Bleske et al.; cited from earlier work

Structure (SMILES): NCCc1c[nH]cn1 [Histamine]
- nasal congestion and flow restriction pressure ([1]; Group 1, 5 and 10 minutes post-histamine exposure): progressive increase
- histamine-induced nasal congestion ([1]; aerosolized 5% histamine, all animals): induced congestion in all animals to varying degrees
- histamine induced congestion without epinephrine administration ([1]; pilot study, 60, 80 and 100 minute time points): remains elevated at significant levels

Structure (SMILES): Cc1ccc(N(CC2=NCCN2)c2cccc(O)c2)cc1 [phentolamine]
- epinephrine plasma levels following intranasal administration [2]: enhanced
